# Reference: patent publication US11497212B2, “Substituted thiophenyl uracils, salts thereof and the use thereof as herbicidal agents” (Syngenta Crop Protection AG, priority 2017, dated 2022)
# Tests used:
# Assay type in all cases: in vivo
# Alopecurus myosuroides = experiment: Herbicidal action post-emergence (greenhouse pot trial); conditions: application rate 20 g/ha, scored visually after about 3 weeks vs untreated controls
# Method in brief: (§1)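 Percent herbicidal efficacy, assessed by eye about 3 weeks after spraying, compares treated with untreated plants. Treatment is a post-emergence spray at the one-leaf stage, using a WP or EC preparation plus 0.5% additive in 600 L/ha of water, at 80 g/ha or lower.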
# Echinochloa crus-galli = experiment: as above; conditions: application rate 20 g/ha, scored visually after about 3 weeks vs untreated controls
# Method in brief: as §1
# Pharbitis purpurea = experiment: as above; conditions: application rate 20 g/ha
# Method in brief: as §1
# Amaranthus retroflexus = experiment: as above; conditions: application rate 20 g/ha, scored visually after about 3 weeks vs untreated controls
# Method in brief: as §1
# Digitaria sanguinalis = experiment: as above; conditions: application rate 20 g/ha
# Method in brief: as §1
# Polygonum convolvulus = experiment: as above; conditions: application rate 20 g/ha, scored visually after about 3 weeks vs untreated controls
# Method in brief: as §1
# Stellaria media = experiment: as above; conditions: application rate 20 g/ha, scored visually after about 3 weeks vs untreated controls
# Method in brief: as §1
# Abutilon theophrasti = experiment: as above; conditions: application rate 20 g/ha, scored visually after about 3 weeks vs untreated controls
# Method in brief: as §1
# Viola tricolor = experiment: as above; conditions: application rate 20 g/ha
# Method in brief: as §1
# Setaria viridis = experiment: as above; conditions: application rate 20 g/ha, scored visually after about 3 weeks vs untreated controls
# Method in brief: as §1
# Matricaria inodora = experiment: as above; conditions: application rate 20 g/ha, scored visually after about 3 weeks vs untreated controls
# Method in brief: as §1
# Veronica persica = experiment: as above; conditions: application rate 20 g/ha
# Method in brief: as §1
# Lolium rigidum = experiment: as above; conditions: application rate 20 g/ha, scored visually after about 3 weeks vs untreated controls
# Method in brief: as §1
# Triticum aestivum = experiment: Crop compatibility post-emergence (greenhouse pot trial); conditions: application rate 20 g/ha
# Method in brief: (§2)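 Crops grown in sandy loam in greenhouse, sprayed at one-leaf stage (2–3 weeks after sowing) with WP or EC formulations in water plus 0.5% additive, 600 L/ha. Damage scored visually after about 3 weeks versus untreated controls, 0% = like control, 100% = dead.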
# Oryza sativa = experiment: as above; conditions: application rate 20 g/ha
# Method in brief: as §2
# Glycine max = experiment: as above
# Method in brief: as §2
# Zea mays = experiment: as above; conditions: application rate 5 g/ha
# Method in brief: as §2
Triticum aestivum (Efficacy in %) (Triticum aestivum),Oryza sativa (Efficacy in %) (Oryza sativa),Glycine max (Efficacy in %) (Glycine max; application rate 20 g/ha),Zea mays (Efficacy in %) (Zea mays),Glycine max (Efficacy in %) (Glycine max; application rate 5 g/ha),Structure (SMILES),Alopecurus myosuroides (Efficacy in %) (Alopecurus myosuroides),Echinochloa crus-galli (Efficacy in %) (Echinochloa crus-galli),Pharbitis purpurea (Efficacy in %) (Pharbitis purpurea),Amaranthus retroflexus (Efficacy in %) (Amaranthus retroflexus),Digitaria sanguinalis (Efficacy in %) (Digitaria sanguinalis),Polygonum convolvulus (Efficacy in %) (Polygonum convolvulus),Stellaria media (Efficacy in %) (Stellaria media),Abutilon theophrasti (Efficacy in %) (Abutilon theophrasti),Viola tricolor (Efficacy in %) (Viola tricolor),Setaria viridis (Efficacy in %) (Setaria viridis),Matricaria inodora (Efficacy in %) (Matricaria inodora),Veronica persica (Efficacy in %) (Veronica persica),Lolium rigidum (Efficacy in %) (Lolium rigidum)
,,,,,"CC(C)C(Sc1cc(-n2c(=O)cc(C(F)(F)F)n(C)c2=O)c(F)cc1Cl)C(=O)NCC1CCCO1 (stereo not shown) [I.6-221, 2-({2-Chloro-4-fluoro-5-[3-methyl-2,6-dioxo-4-(trifluoromethyl)-3,6-dihydropyrimidin-1(2H)-yl]phenyl}sulfanyl)-3-methyl-N-(tetrahydrofuran-2-ylmethyl)butanamide]",90%,80%,100%,100%,100%,100%,80%,100%,100%,100%,100%,100%,80%
20%,,,,,CCC(C)C(Sc1cc(-n2c(=O)cc(C(F)(F)F)n(C)c2=O)c(F)cc1Cl)C(=O)NCC1CCCO1 (stereo not shown) [I.5-221],,80%,100%,100%,80%,100%,90%,100%,100%,100%,100%,100%,80%
20%,0%,20%,,,Cc1c(C(F)(F)F)n(C)c(=O)n(-c2cc(SC(CC(C)C)C(=O)OCC3CCOC3)c(Cl)cc2F)c1=O (stereo not shown) [I.14-72],,,80%,100%,,80%,,80%,100%,100%,80%,100%,
0%,20%,,0%,20%,"CCC(Sc1cc(-n2c(=O)c(C)c(C(F)(F)F)n(C)c2=O)c(F)cc1Cl)C(=O)OCC1CCOC1 (stereo not shown) [I.12-72, Tetrahydrofuran-3-ylmethyl 2-({2-chloro-4-fluoro-5-[3,5-dimethyl-2,6-dioxo-4-(trifluoromethyl)-3,6-dihydropyrimidin-1(2H)-yl]phenyl}sulfanyl)butanoate]",,100%,,100%,,100%,100%,100%,100%,,100%,100%,
